According to US11970497B2, “Tricyclic AKR1C3 dependent KARS inhibitors” (Novartis AG, priority 2019, dated 2024):

Tests used:
[1] = system: H460 (NRF2 pathway mutant cell line with high AKR1C3 expression); assay: In vitro cell proliferation assay (CellTiter-Glo), H460; type: cell-based; details: Homo sapiens, NCI-H460, 72 h; H460 cells, 3 days, CellTiter-Glo, top concentration 10 μM; read-out: H460 Qualified absolute AC50
Procedure, shortened: (§1)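 Luminescent CellTiter-Glo readout after 3-day compound exposure at 37 °C; 8-point 1:5 series, top 10 μM final. Seeding: 800 cells/well for H460, 2000 cells/well for Hara, RPMI-1640 plus 10% FBS. AC50 and percentage activity derived after normalizing to DMSO (1%) and MG132 (30 μM) controls.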

[2] = system: Hara (NRF2 pathway wild type cell line with low AKR1C3 expression); assay: In vitro cell proliferation assay (CellTiter-Glo), Hara; type: cell-based; details: 72 h; Hara cells, 3 days, CellTiter-Glo, top concentration 10 μM; read-out: HARA Qualified absolute AC50
Procedure, shortened: as §1

SMILES	AC50 [1]	AC50 [2]
COC1CN(c2cc(CNC(=O)N3CCC4(CC3)CC(=O)c3cc(F)ccc3N4)ccc2F)C1 [Example 102, 6′-fluoro-N-(4-fluoro-3-(3-methoxyazetidin-1-yl)benzyl)-4′-oxo-3′,4′-dihydro-1′H-spiro[piperidine-4,2′-quinoline]-1-carboxamide]	0.555 µM	3.72 µM
NC(=O)Cc1cc(CNC(=O)N2CCC3(CC2)CC(=O)c2cc(F)ccc2N3)ccc1F [Example 103, N-(3-(2-amino-2-oxoethyl)-4-fluorobenzyl)-6′-fluoro-4′-oxo-3′,4′-dihydro-1′Hspiro[piperidine-4,2′-quinoline]-1-carboxamide]	0.558 µM	> 10 µM
Nc1ccc(CNC(=O)N2CCC3(CC2)CC(=O)c2cc(F)ccc2N3)c(C(F)(F)F)c1 [Example 104, N-(4-amino-2-(trifluoromethyl)benzyl)-6′-fluoro-4′-oxo-3′,4′-dihydro-1′H-spiro[piperidine-4,2′-quinoline]-1-carboxamide]	0.573 µM	> 10 µM
O=C(NC1COC1)c1cc(CNC(=O)N2CCC3(CC2)CC(=O)c2cc(F)ccc2N3)ccc1F [Example 105, 6′-fluoro-N-(4-fluoro-3-(oxetan-3-ylcarbamoyl)benzyl)-4′-oxo-3′,4′-dihydro-1′H-spiro[piperidine-4,2′-quinoline]-1-carboxamide]	0.58 µM	> 10 µM
O=C1CC2(CCN(C(=O)NCc3cnoc3)CC2)Nc2ccc(F)cc21 [Example 107, 6′-fluoro-N-(isoxazol-4-ylmethyl)-4′-oxo-3′,4′-dihydro-1′H-spiro[piperidine-4,2′-quinoline]-1-carboxamide]	0.612 µM	> 10 µM
O=C1CC2(CCN(C(=O)NCc3ccc(OC(F)F)c(F)c3)CC2)Nc2c(F)cc(F)cc21 [Example 108, N-(4-(difluoromethoxy)-3-fluorobenzyl)-6′,8′-difluoro-4′-oxo-3′,4′-dihydro-1′H-spiro[piperidine-4,2′-quinoline]-1-carboxamide]	0.646 µM	3.18 µM
NC(=O)c1c(F)ccc(CNC(=O)N2CCC3(CC2)CC(=O)c2cc(F)ccc2N3)c1F [Example 109, N-(3-carbamoyl-2,4-difluorobenzyl)-6′-fluoro-4′-oxo-3′,4′-dihydro-1′H-spiro[piperidine-4,2′-quinoline]-1-carboxamide]	0.69 µM	> 10 µM
Nc1ccc(CNC(=O)N2CCC3(CC2)CC(=O)c2cc(F)ccc2N3)c(Cl)c1 [Example 111, N-(4-amino-2-chlorobenzyl)-6′-fluoro-4′-oxo-3′,4′-dihydro-1′H-spiro[piperidine-4,2′-quinoline]-1-carboxamide]	0.733 µM	> 10 µM
Nc1ccc(CNC(=O)N2CCC3(CC2)CC(=O)c2cc(F)ccc2N3)cc1C(F)(F)F [Example 112, N-(4-amino-3-(trifluoromethyl)benzyl)-6′-fluoro-4′-oxo-3′,4′-dihydro-1′H-spiro[piperidine-4,2′-quinoline]-1-carboxamide]	0.783 µM	> 10 µM
COc1cc(F)ccc1CNC(=O)N1CCC2(CC1)CC(=O)c1cc(F)ccc1N2 [Example 114, 6′-fluoro-N-(4-fluoro-2-methoxybenzyl)-4′-oxo-3′,4′-dihydro-1′H-spiro[piperidine-4,2′-quinoline]-1-carboxamide]	0.913 µM	4.43 µM
COc1cc(CNC(=O)N2CCC3(CC2)CC(=O)c2cc(F)cc(F)c2N3)ccn1 [Example 115, 6′,8′-difluoro-N-((2-methoxypyridin-4-yl)methyl)-4′-oxo-3′,4′-dihydro-1′H-spiro[piperidine-4,2′-quinoline]-1-carboxamide]	0.93 µM	> 10 µM
Cc1cc(N)ccc1CNC(=O)N1CCC2(CC1)CC(=O)c1cc(F)ccc1N2 [Example 116, N-(4-amino-2-methylbenzyl)-6′-fluoro-4′-oxo-3′,4′-dihydro-1′H-spiro[piperidine-4,2′-quinoline]-1-carboxamide]	0.935 µM	> 10 µM
C[C@H](O)CNC(=O)c1cc(CNC(=O)N2CCC3(CC2)CC(=O)c2cc(F)ccc2N3C)ccc1F [Example 117, (S)-6′-fluoro-N-(4-fluoro-3-((2-hydroxypropyl)carbamoyl)benzyl)-1′-methyl-4′-oxo-3′,4′-dihydro-1′H-spiro[piperidine-4,2′-quinoline]-1-carboxamide]	0.956 µM	> 10 µM
O=C1CC2(CCN(C(=O)NCc3ccon3)CC2)Nc2ccc(F)cc21 [Example 118, 6′-fluoro-N-(isoxazol-3-ylmethyl)-4′-oxo-3′,4′-dihydro-1′H-spiro[piperidine-4,2′-quinoline]-1-carboxamide]	1.01 µM	> 10 µM
Cc1cc(CNC(=O)N2CCC3(CC2)CC(=O)c2cc(F)ccc2N3)ccc1N [Example 119, N-(4-amino-3-methylbenzyl)-6′-fluoro-4′-oxo-3′,4′-dihydro-1′H-spiro[piperidine-4,2′-quinoline]-1-carboxamide]	1.02 µM	> 10 µM
O=C1CC2(CCN(C(=O)NCc3ccc4cc[nH]c4c3)CC2)Nc2ccc(F)cc21 [Example 120, N-((1H-indol-6-yl)methyl)-6′-fluoro-4′-oxo-3′,4′-dihydro-1′H-spiro[piperidine-4,2′-quinoline]-1-carboxamide]	1.05 µM	> 10 µM
Cc1ccc(CNC(=O)N2CCC3(CC2)CC(=O)c2cc(F)cc(F)c2N3)s1 [Example 123, 6′,8′-difluoro-N-((5-methylthiophen-2-yl)methyl)-4′-oxo-3′,4′-dihydro-1′H-spiro[piperidine-4,2′-quinoline]-1-carboxamide]	1.14 µM	5.39 µM
O=C1CC2(CCN(C(=O)NCc3ccno3)CC2)Nc2ccc(F)cc21 [Example 124, 6′-fluoro-N-(isoxazol-5-ylmethyl)-4′-oxo-3′,4′-dihydro-1′H-spiro[piperidine-4,2′-quinoline]-1-carboxamide]	1.16 µM	> 10 µM
O=C1CC2(CCN(C(=O)NCc3ccc(F)nc3)CC2)Nc2c(F)cc(F)cc21 [Example 125, 6′,8′-difluoro-N-((6-fluoropyridin-3-yl)methyl)-4′-oxo-3′,4′-dihydro-1′H-spiro[piperidine-4,2′-quinoline]-1-carboxamide]	1.17 µM	> 10 µM
Nc1cc(CNC(=O)N2CCC3(CC2)CC(=O)c2cc(F)ccc2N3)c(F)cc1F [Example 126, N-(5-amino-2,4-difluorobenzyl)-6′-fluoro-4′-oxo-3′,4′-dihydro-1′H-spiro[piperidine-4,2′-quinoline]-1-carboxamide]	1.29 µM	> 10 µM
O=C1CC2(CCN(C(=O)NCc3cccc(CO)c3)CC2)Nc2c(F)cc(F)cc21 [Example 129, 6′,8′-difluoro-N-(3-(hydroxymethyl)benzyl)-4′-oxo-3′,4′-dihydro-1′H-spiro[piperidine-4,2′-quinoline]-1-carboxamide]	1.52 µM	> 10 µM
O=C1CC2(CCN(C(=O)NCc3cccc(-c4ncc[nH]4)c3)CC2)Nc2ccc(F)cc21 [Example 130, N-(3-(1H-imidazol-2-yl)benzyl)-6′-fluoro-4′-oxo-3′,4′-dihydro-1′H-spiro[piperidine-4,2′-quinoline]-1-carboxamide]	1.53 µM	> 10 µM
CS(=O)(=O)Nc1cc(CNC(=O)N2CCC3(CC2)CC(=O)c2cc(F)ccc2N3)ccc1F [Example 131, 6′-fluoro-N-(4-fluoro-3-(methylsulfonamido)benzyl)-4′-oxo-3′,4′-dihydro-1′H-spiro[piperidine-4,2′-quinoline]-1-carboxamide]	1.62 µM	> 10 µM
O=C1CC2(CCN(C(=O)NCc3ccc(F)c(CO)c3)CC2)Nc2c(F)cc(F)cc21 [Example 132, 6′,8′-difluoro-N-(4-fluoro-3-(hydroxymethyl)benzyl)-4′-oxo-3′,4′-dihydro-1′H-spiro[piperidine-4,2′-quinoline]-1-carboxamide]	1.72 µM	> 10 µM
O=C1CC2(CCN(C(=O)NCc3ccc(F)c(NS(=O)(=O)C4CC4)c3)CC2)Nc2ccc(F)cc21 [Example 133, N-(3-(cyclopropanesulfonamido)-4-fluorobenzyl)-6′-fluoro-4′-oxo-3′,4′-dihydro-1′H-spiro[piperidine-4,2′-quinoline]-1-carboxamide]	1.77 µM	> 10 µM
Cc1noc(CNC(=O)N2CCC3(CC2)CC(=O)c2cc(F)ccc2N3)n1 [Example 134, 6′-fluoro-N-((3-methyl-1,2,4-oxadiazol-5-yl)methyl)-4′-oxo-3′,4′-dihydro-1′H-spiro[piperidine-4,2′-quinoline]-1-carboxamide]	1.78 µM	0.094 µM
CC(O)c1cc(CNC(=O)N2CCC3(CC2)CC(=O)c2cc(F)ccc2N3)ccc1F (stereo not shown) [Example 135, 6′-fluoro-N-(4-fluoro-3-(1-hydroxyethyl)benzyl)-4′-oxo-3′,4′-dihydro-1′H-spiro[piperidine-4,2′-quinoline]-1-carboxamide]	1.86 µM	> 10 µM
Nc1ccc(CNC(=O)N2CCC3(CC2)CC(=O)c2cc(F)ccc2N3)cn1 [Example 136, N-((6-aminopyridin-3-yl)methyl)-6′-fluoro-4′-oxo-3′,4′-dihydro-1′H-spiro[piperidine-4,2′-quinoline]-1-carboxamide]	1.99 µM	> 10 µM
Nc1cc(F)ccc1CNC(=O)N1CCC2(CC1)CC(=O)c1cc(F)ccc1N2 [Example 137, N-(2-amino-4-fluorobenzyl)-6′-fluoro-4′-oxo-3′,4′-dihydro-1′H-spiro[piperidine-4,2′-quinoline]-1-carboxamide]	2.03 µM	> 10 µM
